Publication PMC10257517 (European Journal of Medicinal Chemistry, 2023)

How the values were obtained:
[1] = tested on: SARS-CoV-2 (hCoV-19/Egypt/NRC-03/2020); type: cell-based; settings: for Selectivity index (SI): SI=CC50/IC50
MTT cytotoxicity assay = type: cell-based; settings: African green monkey, VERO-E6 cells
[2] = molecular target: M^pro-SARS-CoV-2 (3CL Protease) (Severe acute respiratory syndrome coronavirus 2, UniProt P0DTD1); test: M^pro-SARS-CoV-2 inhibition, 3CL Protease; type: biochemical
VERO-E6 cells = test: MTT cytotoxicity assay; type: cell-based; settings: MTT, 24 h
SARS-CoV-2 = settings: read-out: EC50 (Vero-E6 cell); against SARS-CoV-2, Vero-E6 cell; cited from earlier work

CCOP(=O)(OCC)N1C/C(=C\c2ccc(F)cc2)C(=O)C2(C1)C(c1ccc(F)cc1)CN(C)C21C(=O)Nc2ccc(Cl)cc21 (stereo not shown) [Compound 6d, Diethyl (E)-[5-chloro-5''-(4-fluorobenzylidene)-4'-(4-fluorophenyl)-1′-methyl-2,4″-dioxodispiro[indoline-3,2′-pyrrolidine-3′,3″-piperidin]-1″-yl]phosphonate]
Selectivity index (SI) [1]: 1.39
CC50 at 24 h (MTT cytotoxicity assay): 18.8 µM
IC50 [2]: 42.8 ± 2.53 µM

Diethyl (E)-[5''-(4-fluorobenzylidene)-4'-(4-fluorophenyl)-1′-methyl-2,4″-dioxodispiro[indoline-3,2′-pyrrolidine-3′,3″-piperidin]-1″-yl]phosphonate [Compound 6c]
IC50 [1]: 85.8 µM
CC50 (VERO-E6 cells): 126 µM

CCOP(=O)(OCC)N1C/C(=C\c2ccc(Br)cc2)C(=O)C2(C1)C(c1ccc(Br)cc1)CN(C)C21C(=O)Nc2ccccc21 (stereo not shown) [Compound 6g, Diethyl (E)-[5''-(4-bromobenzylidene)-4'-(4-bromophenyl)-1′-methyl-2,4″-dioxodispiro[indoline-3,2′-pyrrolidine-3′,3″-piperidin]-1″-yl]phosphonate]
Selectivity index (SI) [1]: 2.29
CC50 at 24 h (MTT cytotoxicity assay): 20.3 µM
IC50 [2]: 15.6 ± 1.02 µM

Diethyl (E)-(5″-benzylidene-1′-methyl-2,4″-dioxo-4′-phenyldispiro[indoline-3,2′-pyrrolidine-3′,3″-piperidin]-1″-yl)phosphonate [Compound 6a]
IC50 [1]: 88.6 µM
CC50 (VERO-E6 cells): 73.1 µM

Diethyl (E)-[1′-methyl-2,4″-dioxo-4'-(thiophen-2-yl)-5''-(thiophen-2-ylmethylene)dispiro[indoline-3,2′-pyrrolidine-3′,3″-piperidin]-1″-yl]phosphonate [Compound 6k]
IC50 [1]: 106 µM
CC50 (VERO-E6 cells): 49.9 µM

Diethyl (E)-[5''-(4-chlorobenzylidene)-4'-(4-chlorophenyl)-1′-methyl-2,4″-dioxodispiro[indoline-3,2′-pyrrolidine-3′,3″-piperidin]-1″-yl]phosphonate [Compound 6e]
IC50 [1]: 340 µM
CC50 (VERO-E6 cells): 9.83 µM

Diethyl (E)-[5-chloro-5''-(4-chlorobenzylidene)-4'-(4-chlorophenyl)-1′-methyl-2,4″-dioxodispiro[indoline-3,2′-pyrrolidine-3′,3″-piperidin]-1″-yl]phosphonate [Compound 6f]
IC50 [1]: 7.26 µM
CC50 (VERO-E6 cells): 10 µM

Diethyl (E)-[5-chloro-1′-methyl-5''-(4-methylbenzylidene)-2,4″-dioxo-4'-(p-tolyl)dispiro[indoline-3,2′-pyrrolidine-3′,3″-piperidin]-1″-yl]phosphonate [Compound 6j]
IC50 [1]: 21.7 µM
CC50 (VERO-E6 cells): 40.1 µM

Diethyl (E)-[1′-methyl-5''-(4-methylbenzylidene)-2,4″-dioxo-4'-(p-tolyl)dispiro[indoline-3,2′-pyrrolidine-3′,3″-piperidin]-1″-yl]phosphonate [Compound 6i]
IC50 [1]: 35.2 µM
CC50 (VERO-E6 cells): 87 µM

CCOP(=O)(OCC)N1C/C(=C\c2ccccc2)C(=O)C2(C1)C(c1ccccc1)CN(C)C21C(=O)Nc2ccc(Cl)cc21 (stereo not shown) [Compound 6b, Diethyl (E)-(5″-benzylidene-5-chloro-1′-methyl-2,4″-dioxo-4′-phenyldispiro[indoline-3,2′-pyrrolidine-3′,3″-piperidin]-1″-yl)phosphonate]
Selectivity index (SI) [1]: 2.12
CC50 at 24 h (MTT cytotoxicity assay): 22 µM
IC50 [2]: 9.6 ± 0.66 µM

Diethyl (E)-[5-chloro-1′-methyl-2,4″-dioxo-4'-(thiophen-2-yl)-5''-(thiophen-2-ylmethylene)dispiro[indoline-3,2′-pyrrolidine-3′,3″-piperidin]-1″-yl]phosphonate [Compound 6l]
IC50 [1]: 578 µM
CC50 (VERO-E6 cells): 23.7 µM

Diethyl (E)-[5''-(4-methoxybenzylidene)-4'-(4-methoxyphenyl)-1′-methyl-2,4″-dioxodispiro[indoline-3,2′-pyrrolidine-3′,3″-piperidin]-1″-yl]phosphonate [Compound 6h]
IC50 [1]: 46.7 µM
CC50 (VERO-E6 cells): 38.3 µM

COc1cccc2[nH]c(C(=O)N[C@@H](CC(C)C)C(=O)N[C@@H](C[C@@H]3CCNC3=O)C(=O)CO)cc12 [PF-00835231]
EC50 (SARS-CoV-2): ≤ 0.23 µM
